The supplement of paper PMC10307832

Tests used:
Experiment in all cases: relative viability (nuclei count vs DMSO), 5 days (fraction); higher = more cells survive
Pictilisib + Trametinib = compound: CS(=O)(=O)N1CCN(Cc2cc3nc(-c4cccc5[nH]ncc45)nc(N4CCOCC4)c3s2)CC1 [Pictilisib] + CC(=O)Nc1cccc(-n2c(=O)n(C3CC3)c(=O)c3c(Nc4ccc(I)cc4F)n(C)c(=O)c(C)c32)c1 [Trametinib] (partner 0.02 µM)
Outline: (§1)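 Lung cancer cell lines were pin-tool dosed in 1536-well plates on the day after seeding, with either a lone drug or a fixed anchor-drug dose plus five library-drug doses (not always all listed) in √10 steps. Nuclei were counted on 4× images after 5 days. Relative viability is the ratio of treated-well to vehicle-well nuclei counts, with each value a median of duplicate plates.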

Pictilisib + AZD7762 = compound: CS(=O)(=O)N1CCN(Cc2cc3nc(-c4cccc5[nH]ncc45)nc(N4CCOCC4)c3s2)CC1 [Pictilisib] + NC(=O)Nc1cc(-c2cccc(F)c2)sc1C(=O)N[C@H]1CCCNC1 [AZD7762] (partner 0.2 µM)
Outline: as §1

MK-2206 + Dasatinib = compound: NC1(c2ccc(-c3nc4ccn5c(=O)[nH]nc5c4cc3-c3ccccc3)cc2)CCC1 [MK-2206] + Cc1nc(Nc2ncc(C(=O)Nc3c(C)cccc3Cl)s2)cc(N2CCN(CCO)CC2)n1 [Dasatinib] (partner 0.075 µM)
Outline: as §1

MK-2206 + Vorinostat = compound: NC1(c2ccc(-c3nc4ccn5c(=O)[nH]nc5c4cc3-c3ccccc3)cc2)CCC1 [MK-2206] + O=C(CCCCCCC(=O)Nc1ccccc1)NO [Vorinostat] (partner 1 µM)
Outline: as §1

MK-2206 + Luminespib = compound: NC1(c2ccc(-c3nc4ccn5c(=O)[nH]nc5c4cc3-c3ccccc3)cc2)CCC1 [MK-2206] + CCNC(=O)c1noc(-c2cc(C(C)C)c(O)cc2O)c1-c1ccc(CN2CCOCC2)cc1 [Luminespib] (partner 0.01 µM)
Outline: as §1

Cell Line | relative viability (Pictilisib + Trametinib; first compound 0.02 µM) | relative viability (Pictilisib + Trametinib; first compound 0.06325 µM) | relative viability (Pictilisib + Trametinib; first compound 0.6325 µM) | relative viability (Pictilisib + Trametinib; first compound 2 µM) | relative viability (Pictilisib + AZD7762; first compound 0.02 µM) | relative viability (Pictilisib + AZD7762; first compound 0.06325 µM) | relative viability (Pictilisib + AZD7762; first compound 0.6325 µM) | relative viability (Pictilisib + AZD7762; first compound 2 µM) | relative viability (MK-2206 + Dasatinib; first compound 0.01 µM) | relative viability (MK-2206 + Dasatinib; first compound 0.03162 µM) | relative viability (MK-2206 + Dasatinib; first compound 0.3162 µM) | relative viability (MK-2206 + Dasatinib; first compound 1 µM) | relative viability (MK-2206 + Vorinostat; first compound 0.01 µM) | relative viability (MK-2206 + Vorinostat; first compound 0.03162 µM) | relative viability (MK-2206 + Vorinostat; first compound 0.3162 µM) | relative viability (MK-2206 + Vorinostat; first compound 1 µM) | relative viability (MK-2206 + Luminespib; first compound 0.01 µM) | relative viability (MK-2206 + Luminespib; first compound 0.03162 µM) | relative viability (MK-2206 + Luminespib; first compound 0.3162 µM) | relative viability (MK-2206 + Luminespib; first compound 1 µM)
NCI-H1975 | 0.326 | 0.369 | 0.194 | 0.142 | 0.816 | 0.62 | 0.466 | 0.225 | 0.4 | 0.346 | 0.292 | 0.341 | 0.712 | 0.63 | 0.572 | 0.522 | 0.126 | 0.199 | 0.204 | 0.144
PC-3 [JPC-3] | 0.727 | 0.658 | 0.586 | 0.433 | 0.812 | 0.844 | 0.491 | 0.324 | 0.968 | 1.01 | 1.06 | 0.934 | 0.796 | 0.691 | 0.826 | 0.755 | 0.601 | 0.652 | 0.627 | 0.705
NCI-H2126 | 0.532 | 0.531 | 0.378 | 0.278 | 1.02 | 1.01 | 0.956 | 0.716 | 0.686 | 0.625 | 0.5 | 0.476 | 0.718 | 0.789 | 0.608 | 0.623 | 0.9 | 0.877 | 0.856 | 0.752
LU99A | 0.579 | 0.478 | 0.407 | 0.239 | 0.423 | 0.395 | 0.266 | 0.185 | 0.524 | 0.733 | 0.48 | 0.498 | 0.456 | 0.529 | 0.473 | 0.49 | 0.284 | 0.251 | 0.268 | 0.203
NCI-H23 | 0.367 | 0.319 | 0.241 | 0.163 | 0.203 | 0.258 | 0.209 | 0.155 | 0.808 | 0.845 | 0.787 | 0.423 | 0.6 | 0.508 | 0.569 | 0.372 | 0.214 | 0.215 | 0.19 | 0.211
PC-14 | 0.749 | 0.761 | 0.537 | 0.196 | 0.399 | 0.366 | 0.246 | 0.155 | 0.289 | 0.346 | 0.27 | 0.294 | 0.73 | 0.79 | 0.55 | 0.669 | 0.181 | 0.214 | 0.143 | 0.159
A-427 | 0.733 | 0.716 | 0.505 | 0.287 | 0.796 | 0.738 | 0.556 | 0.403 | 0.698 | 0.735 | 0.698 | 0.596 | 0.871 | 0.877 | 0.916 | 0.869 | 0.882 | 0.947 | 0.975 | 0.901
NCI-H596 | 0.795 | 0.764 | 0.515 | 0.327 | 1.01 | 1.14 | 0.564 | 0.44 | 0.669 | 0.662 | 0.577 | 0.505 | 0.64 | 0.754 | 0.604 | 0.462 | 0.984 | 0.919 | 0.889 | 0.737
RERF-LC-KJ | 0.828 | 0.859 | 0.708 | 0.56 | 0.999 | 0.916 | 0.855 | 0.55 | 0.788 | 0.796 | 0.607 | 0.626 | 0.651 | 0.741 | 0.603 | 0.62 | 1.27 | 1.11 | 0.971 | 1.06
NCI-H647 | 0.554 | 0.464 | 0.307 | 0.126 | 0.474 | 0.577 | 0.283 | 0.201 | 0.17 | 0.188 | 0.154 | 0.156 | 0.569 | 0.429 | 0.567 | 0.654 | 0.0812 | 0.159 | 0.156 | 0.126
NCI-H1734 | 0.692 | 0.717 | 0.499 | 0.315 | 0.559 | 0.537 | 0.357 | 0.192 | 0.501 | 0.449 | 0.408 | 0.387 | 0.877 | 0.822 | 0.629 | 0.67 | 0.194 | 0.168 | 0.193 | 0.148
NCI-H1395 | 1.03 | 1.03 | 0.866 | 0.477 | 0.44 | 0.416 | 0.375 | 0.338 | 0.435 | 0.399 | 0.413 | 0.362 | 0.713 | 0.667 | 0.574 | 0.576 | 0.77 | 0.606 | 0.746 | 0.651
EMC-BAC-2 | 0.863 | 0.869 | 0.685 | 0.513 | 1.16 | 1.12 | 0.798 | 0.631 | 0.266 | 0.334 | 0.335 | 0.312 | 0.468 | 0.442 | 0.442 | 0.392 | 1.22 | 1.18 | 1.08 | 1.07
NCI-H1355 | 0.4 | 0.343 | 0.295 | 0.198 | 0.678 | 0.689 | 0.546 | 0.362 | 0.734 | 0.7 | 0.701 | 0.432 | 0.598 | 0.667 | 0.541 | 0.49 | 0.799 | 0.689 | 0.752 | 0.696
NCI-H1944 | 0.451 | 0.349 | 0.337 | 0.183 | 0.555 | 0.477 | 0.319 | 0.236 | 0.243 | 0.227 | 0.198 | 0.182 | 0.536 | 0.547 | 0.556 | 0.433 | 0.729 | 0.806 | 0.685 | 0.676
HOP-62 | 0.396 | 0.356 | 0.332 | 0.178 | 0.759 | 0.668 | 0.469 | 0.459 | 0.592 | 0.73 | 0.624 | 0.665 | 0.491 | 0.632 | 0.492 | 0.656 | 0.91 | 0.899 | 0.919 | 0.854
